# Measured values reported in patent EP0168522A2, “Active agent-containing shaped article” (Akzo Patente GmbH, priority 1983, dated 1986).
# Experiment: Water solubility of the active agent
# Type: physicochemical
# Details: in water; read-out: Wasserlöslichkeit
row,solubility [mg/mL],Compound
1,~70,Oc1ccc(O)cc1 [Hydrochinon]
2,14,CC(=O)Nc1ccc(O)cc1 [Acetaminophen]
